Where two headings read alike, the source gives them in different places.
Assays:
[1] = tested on: trypomastigote forms of T. cruzi (Dm28c-Luc); experiment: Trypanocidal activity against trypomastigotes (luciferase luminescence, 24 h); format: cell-based, Trypanosoma cruzi; settings: for IC90 / IC50: Trypanosoma cruzi, Dm28c-Luc, 24 h
Description: (§1) A drug screen was carried out with Trypanosoma cruzi clone Dm28c genetically modified to express luciferase (Dm28c-luc), kindly provided by Dr. Cristina Henriques. The genetically modified T. cruzi clone Dm28c (Dm28c-Luc) has the firefly luciferase gene integrated into the genome, stably expressing the luminescent enzyme. The bioluminescent signal, proportional to the number of parasites, is produced by adding a D-luciferin substrate. Trypomastigotes were harvested from supernatants of VERO cell cultures, infected at a ratio of 10:1 parasite/host cells, 4 days post-infection (4 dpi). Parasites were used for phenotypic drug screening procedures. Luminescent parasites are a reliable and sensitive tool that allows precise quantification of parasite load. The use of genetically modified organisms was approved under license CQB 105/99.
All triazole analogs were analyzed for their biological activity against trypomastigote and intracellular amastigote forms of T. cruzi (Dm28c-Luc). Trypomastigotes (1.0 × 10^6 parasites/well) were incubated for 24 h at 37 °C with triazole derivatives and Bz at concentrations ranging from 0.04 to 100 µM. Luciferin (300 µg/mL), a luciferase substrate, was added to parasite suspensions to evaluate trypomastigotes viability. The luminescent signal was measured using a Glomax microplate reader. A maximal DMSO concentration (0.1%) was used as the negative control. The inhibitory concentration 50 (IC50) and 90 (IC90) against T. cruzi, which reduces the number of parasites by 50% and 90%, respectively, was calculated using linear regression. The selectivity index (SI), a ratio that measures the window between toxicity in mammalian cells and anti-T. cruzi activity (SI = CC50/IC50), was also determined.

[2] = tested on: VERO cells infected with Silvio X10/7; design: method as in PMID 30001347; settings: cited from earlier work
[3] = Cytotoxicity on VERO cell monolayers (CellTiter Glo, 72 h); format: cell-based; settings: African green monkey, VERO cell monolayers, ATP level, read-out: Cytotoxicity VERO Cells CC50
Description: VERO cells (Rio de Janeiro Cell Bank code 0245) were cultivated in RPMI 1640 medium supplemented with 10% fetal bovine serum (FBS) at 37 °C in a humidified atmosphere of 5% CO2. Confluent monolayers were dissociated with trypsin-EDTA solution (0.025%), and isolated cells were seeded on culture plates or flasks, depending on the experimental assay. The VERO cell cultures were used in cytotoxicity and phenotypic screening assays and for obtaining culture-derived trypomastigotes. The toxic effect of the triazole series was evaluated on VERO cell monolayers. After seeding for 24 hours, VERO cells were treated for 72 h at 37 °C with the 1,2,3-triazole derivatives and Bz, the reference drug, with a range of concentration from 15.62 to 500 µM. Controls were performed with a non-toxic concentration of dimethyl sulfoxide (DMSO; ≤0.1%) used in the experimental assays. Cell viability was determined by measuring ATP level using a CellTiter Glo kit. The luminescence read was performed using a Glomax microplate reader (Promega Corporation, Madison, WI, EUA). The cytotoxicity concentration 50 (CC50), the drug concentration that reduces cell viability by 50%, was calculated using linear regression. […] Cultures were exposed for 72 h to compound concentrations up to 500 µM, following the protocol mentioned above. At least 3 independent assays were performed in duplicate.

[4] = tested on: T. cruzi (Dm28c-Luc)-infected VERO cells; experiment: Long-term washout assay (10 days treatment, 10 days without compound); format: cell-based, Trypanosoma cruzi; settings: 10 days treatment (30 or 60 times IC50; Bz 100 µM) + 10 days without compound
Description: (§2) A washout assay was performed to evaluate the capacity of the promising candidates to eliminate all parasites. Thus, VERO cells, seeded in 96-well plates at a density of 1.5 × 10^4 cells/well, were infected with T. cruzi (Dm28c-Luc) at a 10:1 parasite–host cell ratio (24 h). Two treatment schedules were performed: 3 days with 30, 50, and 100 µM concentrations and 10 days with 30 and 60 times the IC50 concentrations. After treatment, the cultures were washed with PBS and kept for the same period in RPMI 1640 medium supplemented with 10% FBS without compound pressure. The culture medium was changed every 3 or 4 days during the time course, and the supernatant was harvested for luminescence reading after luciferin (300 µg/mL) addition. At the endpoint, the monolayers were also evaluated for parasite load. The luminescent signal was read using a Glomax reader. Bz (100 µM) and DMSO (≤1%) were used as positive and negative controls, respectively.

[5] = tested on: T. cruzi (Dm28c-Luc)-infected VERO cells; experiment: Short-term washout assay (3 days treatment, 3 days without compound); format: cell-based, Trypanosoma cruzi; settings: 100 µM
Description: as §2

[6] = tested on: intracellular amastigote forms of T. cruzi (Dm28c-Luc); experiment: Activity against intracellular amastigotes in infected VERO cells (72 h); format: cell-based, Trypanosoma cruzi; settings: for Intracellular Amastigotes SI: SI = CC50 of VERO cells/IC50 of intracellular amastigotes; for IC50 / IC90: Trypanosoma cruzi, infected VERO cells, 72 h, mean ± SD; for IC50: read-out: Trypanocidal Activity Intracellular Amastigotes IC50; for IC90: read-out: Trypanocidal Activity Intracellular Amastigotes IC90
Description: as §1
Activity against intracellular amastigotes was determined in cultures of VERO cells infected by T. cruzi (24 h), as previously described. Briefly, infected cultures were treated for 72 h at 37 °C with different concentrations of triazole derivatives (0.04–100 µM). Then, the culture supernatant was removed, and the viability of the intracellular parasites was evaluated after adding luciferin (300 µg/mL) to the cell monolayer followed by reading using the microplate reader. Anti-T. cruzi activity (IC50 and IC90) and SI values were determined. All experimental assays were performed at least 3 times in duplicate.

[7] = mean ± SD, read-out: Trypanocidal Activity Trypomastigotes IC50

Molecule O=C(Cn1ccnc1[N+](=O)[O-])NCc1ccccc1 [Bz, benznidazole, reference compound] has an IC90 ([1]; mean ± SD) of over 100 µM, an IC50 [1, 7] of 22.8 ± 4.12 µM and an IC50 ([1]; read-out: pIC50 against trypomastigotes (converted)) of 22.9 µM. For the same molecule, the relapse ([2]; 12.5 to 50 times EC50 for 8 days) was “did not prevent relapse”, the recrudescence ([2]; 16 days of treatment with 25 to 50 times EC50, followed for 60 days) was “lack of recrudescence” and the CC50 at 72 h [3] was over 500 µM. The “infection reactivation / sterile cure” value [4] was “failed to induce a sterile cure”, the “effect on parasite load / infection progression” value [5] was “potentially inhibited the infection progression” and the “Intracellular Amastigotes SI” value [6] was over 107. It also gave an IC50 [6] of 4.67 ± 0.22 µM and an IC90 [6] of 21.7 ± 2.37 µM.

Cc1ccccc1-n1cc(C(C)(C)O)nn1 [Triazole 1a, 2-(1-(o-Tolyl)-1H-1,2,3-triazole-4-yl)propan-2-ol] gave an IC90 ([1]; mean ± SD) of over 100 µM, an IC50 [1, 7] of over 100 µM and a CC50 at 72 h [3] of over 500 µM. For the same molecule, the IC50 [6] was over 100 µM.

Molecule Clc1ccc(-n2cc(-c3ccccc3)nn2)cc1 [Triazole 1b, 1-(4-Chlorophenyl)-4-phenyl-1H-1,2,3-triazole] has an IC90 ([1]; mean ± SD) of over 100 µM, an IC50 [1, 7] of over 100 µM and a CC50 at 72 h [3] of over 500 µM. For the same molecule, the IC50 [6] was over 100 µM.

With Brc1ccc(-n2cc(-c3ccccc3)nn2)cc1 [Triazole 1c, 1-(4-Bromophenyl)-4-phenyl-1H-1,2,3-triazole] the IC90 ([1]; mean ± SD) was over 100 µM, the IC50 [1, 7] was over 100 µM and the CC50 at 72 h [3] was over 500 µM. It also gave an IC50 [6] of over 100 µM.

For c1ccc(Cn2cc(-c3ccccc3)nn2)cc1 [Triazole 1e, 1-Benzyl-4-phenyl-1H-1,2,3-triazole], the IC90 ([1]; mean ± SD) was over 100 µM, the IC50 [1, 7] was over 100 µM and the CC50 at 72 h [3] was over 500 µM. For the same molecule, the “Intracellular Amastigotes SI” value [6] was over 6 and the IC50 [6] was 83.2 ± 2.27 µM.

With OC1(c2cn(-c3ccccc3)nn2)CCCCC1 [Triazole 1h, 1-(1-Phenyl-1H-1,2,3-triazole-4-yl)cyclohexan-1-ol] the IC50 [1, 7] was over 100 µM, the CC50 at 72 h [3] was over 500 µM and the IC50 [6] was over 100 µM.

For O=[N+]([O-])c1ccc(-n2cc(C3(O)CCCCC3)nn2)cc1 [Triazole 1i, 1-(1-(4-Nitrophenyl)-1H-1,2,3-triazole-4-yl)cyclohexan-1-ol], the IC50 [1, 7] was over 100 µM, the CC50 at 72 h [3] was over 500 µM and the IC50 [6] was over 100 µM.

COc1ccc(-n2cc(C3(O)CCCCC3)nn2)cc1 [Triazole 1j, 1-(1-(4-Methoxyphenyl)-1H-1,2,3-triazole-4-yl)cyclohexan-1-ol] showed an IC50 [1, 7] of over 100 µM, a CC50 at 72 h [3] of over 500 µM and an IC50 [6] of over 100 µM.

Work on Cc1ccccc1-n1cc(C2(O)CCCCC2)nn1 [Triazole 1k, 1-(1-(o-Tolyl)-1H-1,2,3-triazole-4-yl)cyclohexan-1-ol] yielded an IC50 [1, 7] of over 100 µM, a CC50 at 72 h [3] of over 500 µM and a melting point of 201 to 203 °C. The IC50 [6] was over 100 µM.

In the case of O=C(OCc1cn(-c2ccccc2Cl)nn1)c1ccccc1 [Triazole 1l, (1-(2-Chlorophenyl)-1H-1,2,3-triazole-4-yl)methyl benzoate], the “Trypomastigotes SI” value ([1]; SI = CC50 of VERO cells/IC50 of trypomastigotes) is reported as 2.94, the IC90 ([1]; mean ± SD) is reported as over 100 µM and the IC50 [1, 7] is reported as 80.4 ± 3.56 µM. The CC50 at 72 h [3] was 236 ± 17.9 µM, the “Intracellular Amastigotes SI” value [6] was 3.03 and the IC50 [6] was 77.9 ± 2 µM. For the same molecule, the IC90 [6] was over 100 µM.

With Cc1ccccc1-n1cc(COC(=O)c2ccccc2)nn1 [Triazole 1m, (1-(o-Tolyl)-1H-1,2,3-triazole-4-yl)methyl benzoate] the IC50 [1, 7] was over 100 µM, the CC50 at 72 h [3] was over 500 µM and the IC50 [6] was over 100 µM.

Molecule COc1ccc(-n2cc(CO)nn2)cc1 [Triazole 1n, (1-(4-Methoxyphenyl)-1H-1,2,3-triazole-4-yl)methanol] has an IC50 [1, 7] of over 100 µM, a CC50 at 72 h [3] of over 500 µM and an IC50 [6] of over 100 µM.

Source: PMC10525445, “Antitrypanosomal Activity of 1,2,3-Triazole-Based Hybrids Evaluated Using In Vitro Preclinical Translational Models” (Biology, 2023)
